According to ChEMBL document CHEMBL1201862, “PubChem BioAssay data set” (2004):
The source made the active and inactive calls.

Columns and labels:
[1] = MITF Measured in Cell-Based System Using Plate Reader - 2084-01_Inhibitor_Dose_DryPowder_Activity_Set6.; assay type: functional
[2] = melanocyte viability loss, MITF-dependent cells, cell-based, plate reader, dry powder, cytotoxicity control, dose response (AID 651920); assay type: functional
[3] = inhibitors of TRPM1-promoter reporter in SK-MEL-5 – cell-based, luciferase, dry powder, set 9, MITF inhibitor project, dose response (AID 651588); assay type: functional
[4] = growth inhibition of MALME3 cells – cell-based, CellTiter-Glo luminescence, dry powder, set 5, orthogonal assay for MITF inhibitor project, dose response (AID 651584); assay type: functional; settings: MALME-3
[5] = viability loss in MITF-independent A375 cells – cell-based, CellTiter-Glo luminescence, dry powder, set 7, counter-screen for MITF inhibitor project, dose response (AID 624490); assay type: functional; settings: A-375
[6] = cytotoxicity in melanoma parental cells – cell-based, CellTiter-Glo, dry powder, set 6, MITF inhibitor project, dose response (AID 624429); assay type: functional; settings: SK-MEL-5
[7] = MITF Measured in Cell-Based System Using Plate Reader - 2084-01_Inhibitor_Dose_DryPowder_Activity_Set7.; assay type: functional
[8] = MITF Orthogonal Assay: MALME3 CTG Assay Measured in Cell-Based System Using Plate Reader - 2084-04_Inhibitor_Dose_DryPowder_Activity_Set6.; assay type: functional; settings: MALME-3
[9] = MITF Orthogonal Assay: SK-MEL-5 CTG Assay Measured in Cell-Based System Using Plate Reader - 2084-02_Inhibitor_Dose_DryPowder_Activity_Set5.; assay type: functional
[10] = growth inhibition of SK-MEL-5 melanoma cells – cell-based, CellTiter-Glo luminescence, dry powder, set 8, orthogonal assay for MITF inhibitor project, dose response (AID 651586); assay type: functional
[11] = cytotoxicity in MITF-independent A375 cells – cell-based, CellTiter-Glo luminescence, dry powder, set 4, counter-screen for MITF inhibitor project, dose response (AID 624364); assay type: functional; settings: A-375;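 further: A375 melanoma cells are MITF independent so this is a counter screen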
[12] = OVCAR8 cell viability loss – plate reader, dry powder samples, PAX8 project, dose response (AID 743197); assay type: functional, cell-based; settings: OVCAR-8
Paired box protein Pax-8 = Paired box protein Pax-8 (Homo sapiens, UniProt Q06710); test: PAX8 transcriptional activity inhibition in RMG-I – RMG-I cells, luciferase, cherry-pick, dose response (AID 687027); assay type: functional, cell-based;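 further: luciferase reporter driven by Pax8 target thyroperoxidase promoter measured by SteadyGlo luminescence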
[13] = OVCAR-3 cell viability loss – plate reader, dry powder samples, PAX8 inhibitor project, dose response (AID 743044); assay type: functional, cell-based
[14] = IGROV1 cell killing – plate reader, dry powder samples, PAX8 inhibitor project, dose response (AID 743043); assay type: functional, cell-based; settings: IGROV-1
[15] = toxicity toward immortalized ovarian surface epithelium – cell-based, plate reader, dry powder samples, cytotoxicity control for PAX8 inhibitor project, dose response (AID 743045); assay type: functional
[16] = ATP-based viability loss in HEK293T cells – cell-based, CellTiter-Glo luminescence, dry powder, set 2, cytotoxicity control, dose response (AID 720595); assay type: functional; settings: HEK293
[17] = ATP-based viability loss in HeLa cells – cell-based, CellTiter-Glo luminescence, dry powder, set 2, cytotoxicity control, dose response (AID 720593); assay type: functional
[18] = dual-tagged ARNT PAS-B bead signal quenchers – biochemical, dry powder, artefact control for ARNT/TACC3 disruptor project, dose response (AID 720564)
[19] = HepG2 hepatoma cell viability loss – plate reader, dry powder, cytotoxicity control, dose response (AID 651947); assay type: functional, cell-based
[20] = viability loss in HEK293 kidney cells – cell-based, cherry-picks, set 5, cytotoxicity control, dose response (AID 1053117); assay type: functional
[21] = viability loss in A549 lung cancer cells – cell-based, cherry-picks, […], cytotoxicity control, dose response (AID 1053119); assay type: functional
[22] = blockers of FN fibrillogenesis by fibroblasts – AH1F cells, Alexa488-FN fluorescence, cherry-picks, dose response (AID 1035475); assay type: functional, cell-based
[23] = viability loss in A549 lung cells – cell-based, 24 h, CellTiter-Glo luminescence, cherry-picks, cytotoxicity control, dose response (AID 1053115); assay type: functional; settings: A549, 24 h
[24] = CellTiter-Glo luminescence survival assay, SW480 colon tumor line, concentration-response curve, half-maximal inhibitory concentration (AID 1117338); assay type: functional
[25] = cytotoxicity toward HCT116 cells – cell-based, CellTiter-Glo luminescence, IC50, dose response (AID 1117332); assay type: functional; settings: HCT-116
[26] = Reduced DLD-1 viability, concentration-response, CellTiter-Glo luminescence (AID 1117352); assay type: functional
[27] = cytotoxicity toward HT-29 cells – cell-based, CellTiter-Glo luminescence, IC50, dose response (AID 1117330); assay type: functional
[28] = RKO cell viability reduction, dose response, CellTiter-Glo luminescence (AID 1117322); assay type: functional
[29] = rise of 2N DNA cells, HeLa – IC50, dose response (AID 1117349); assay type: functional, cell-based
[30] = HCT116 cell viability decrease, GSK3B pretreatment – CellTiter-Glo, IC50, dose response (AID 1117339); assay type: functional; settings: HCT-116
[31] = SNU-C1 cell viability reduction, dose response, CellTiter-Glo luminescence (AID 1117323); assay type: functional, cell-based
[32] = rise of 4N DNA cells, HeLa – IC50, dose response (AID 1117351); assay type: functional, cell-based
[33] = cytotoxicity toward Colo320 cells – cell-based, CellTiter-Glo luminescence, IC50, dose response (AID 1117334); assay type: functional; settings: COLO 320

Chain of Paired box protein Pax-8 (Q06710 whole entry): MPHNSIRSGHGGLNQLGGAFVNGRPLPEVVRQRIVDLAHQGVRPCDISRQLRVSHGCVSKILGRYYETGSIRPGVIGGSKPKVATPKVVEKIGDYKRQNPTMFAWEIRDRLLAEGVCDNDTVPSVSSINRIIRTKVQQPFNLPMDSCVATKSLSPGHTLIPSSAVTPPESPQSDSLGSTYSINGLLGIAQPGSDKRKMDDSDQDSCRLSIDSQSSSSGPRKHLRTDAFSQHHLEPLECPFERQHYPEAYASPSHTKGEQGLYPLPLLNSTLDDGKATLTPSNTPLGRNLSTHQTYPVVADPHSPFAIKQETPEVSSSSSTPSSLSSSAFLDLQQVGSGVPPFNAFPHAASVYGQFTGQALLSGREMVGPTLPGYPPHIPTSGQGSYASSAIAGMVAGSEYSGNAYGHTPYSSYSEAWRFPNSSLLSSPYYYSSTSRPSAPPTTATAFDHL

In the case of `O=C1C=C(NS(=O)(=O)c2ccccc2)C(=O)c2ccccc21`, the AC50 [1] is reported as 3.04 µM (active), the AC50 [2] is reported as 59.4 µM (active) and the AC50 [3] is reported as 13 µM (active). The AC50 [4] was 21.3 µM (active), the AC50 [5] was > 70 µM (inactive) and the AC50 [6] was 10.5 µM (active). For the same molecule, the AC50 [7] was 4.57 µM (active), the AC50 [8] was 21.3 µM (active) and the AC50 [9] was 10.3 µM (active). The AC50 [10] was 18.4 µM (active) and the AC50 [11] was > 70 µM (inactive).
For `O=C(NC1CCCCC1)N1C[C@@H]2N[C@H](C1)[C@@H]2c1ccc(-c2ccc(F)cc2)cc1`, the AC50 [12] was > 70 µM (inactive), the AC50 (Paired box protein Pax-8) was 17.2 µM (active) and the AC50 [13] was 22 µM (active). For the same molecule, the AC50 [14] was 63.7 µM (active) and the AC50 [15] was 45.7 µM (active).
In the case of `O=C(Nc1nnc(-c2ccc(F)cc2)o1)c1ccc(S(=O)(=O)N2CCCCC2)cc1`, the AC50 [16] is reported as 2.51 µM (active), the AC50 [17] is reported as 46.1 µM (active) and the AC50 [18] is reported as 72.4 µM (active).
In the case of `FC(F)(F)c1ccc(CSc2nnc(-c3ccccc3)o2)cc1`, the AC50 [19] is reported as 0.223 µM (active).
For `N#Cc1ccc(-c2ccc3c(c2)[C@H]2[C@H](CCN2S(=O)(=O)c2cccc(F)c2)[C@H](CO)N3)cc1`, the AC50 [20] was 32.6 µM (active), the AC50 [21] was 33.6 µM (active) and the AC50 [22] was 5.71 µM (active).
With `COc1ccccc1CN1CC[C@@H]2[C@H](CO)Nc3ccc(C#Cc4ccccc4)cc3[C@@H]21` the AC50 [23] was > 60 µM (inactive).
In the case of `O=C(O)CN(CCN(CC(=O)O)CC(=O)O)CCN(CC(=O)O)CC(=O)O` [PENTETIC ACID], the IC50 [24] is reported as 3.14 µM (active), the IC50 [25] is reported as > 6.67 µM (inactive) and the IC50 [26] is reported as > 20 µM (inactive). The IC50 [27] was > 20 µM (inactive), the IC50 [28] was 2.96 µM (active) and the IC50 [29] was > 10 µM (inactive). The IC50 [30] was 0.896 µM (active), the IC50 [31] was > 20 µM (inactive) and the IC50 [32] was > 10 µM (inactive). The IC50 [33] was > 20 µM (inactive).
